# Test results taken from article PMC6934184, “Selective DNA-PKcs inhibition extends the therapeutic index of localized radiotherapy and chemotherapy” (The Journal of Clinical Investigation, 2019).
# Biological target: T1, DDR1 (Homo sapiens, UniProt Q08345)
# T1 construct: purchased Thermo Fisher Scientific (Life Technologies) SelectScreen
# Test: SelectScreen LanthaScreen
# Assay type: binding
# Settings: read-out: % displacement
# Procedure, shortened: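 SelectScreen broad panel; activity (Z'LYTE, Adapta) plus binding formats. ATP: Km app for CSF1R Z'LYTE; 10 for CAMK1 Adapta. Readout = % per kinase.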
# T1 sequence (Q08345 19-913): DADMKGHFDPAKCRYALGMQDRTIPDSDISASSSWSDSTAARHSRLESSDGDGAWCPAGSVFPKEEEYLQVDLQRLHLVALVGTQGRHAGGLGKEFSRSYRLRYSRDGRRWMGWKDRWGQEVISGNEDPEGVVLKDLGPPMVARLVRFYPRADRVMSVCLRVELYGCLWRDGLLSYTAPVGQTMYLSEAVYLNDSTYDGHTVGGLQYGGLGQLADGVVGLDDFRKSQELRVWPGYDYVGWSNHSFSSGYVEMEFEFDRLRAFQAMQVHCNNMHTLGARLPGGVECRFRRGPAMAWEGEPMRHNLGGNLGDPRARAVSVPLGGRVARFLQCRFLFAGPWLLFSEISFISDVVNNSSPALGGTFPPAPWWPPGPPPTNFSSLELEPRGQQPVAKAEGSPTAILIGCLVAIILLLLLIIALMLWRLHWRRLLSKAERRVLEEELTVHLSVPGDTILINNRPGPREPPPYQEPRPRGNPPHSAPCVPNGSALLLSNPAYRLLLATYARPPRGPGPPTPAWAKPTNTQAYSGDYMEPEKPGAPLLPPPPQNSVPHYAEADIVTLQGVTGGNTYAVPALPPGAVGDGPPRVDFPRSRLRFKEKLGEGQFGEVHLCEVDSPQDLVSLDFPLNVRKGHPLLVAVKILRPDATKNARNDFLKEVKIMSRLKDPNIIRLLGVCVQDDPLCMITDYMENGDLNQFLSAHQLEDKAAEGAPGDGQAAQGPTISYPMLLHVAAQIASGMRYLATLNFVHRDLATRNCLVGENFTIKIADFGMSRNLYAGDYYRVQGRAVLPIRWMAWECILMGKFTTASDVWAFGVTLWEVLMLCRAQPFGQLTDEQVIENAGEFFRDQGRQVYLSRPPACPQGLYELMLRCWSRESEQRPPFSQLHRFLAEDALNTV
compound,measurement,value
CN(C(=O)CN1CCOCC1)c1ccc2sc3c(-c4cccc5c(=O)cc(N6CC7CCC(C6)O7)oc45)cccc3c2c1 [NU5455],inhibition at 1 µM,-1.8%
